One test concerns FoxO3a. The test is described as follows: FoxO3a inhibition assay (GFP-FoxO3a nuclear to cytoplasmic translocation) in U2OS GFP-FoxO3a H212R reporter cells. It is filed as cell-based. The note with it: Homo sapiens, 0.5 h, serum starved overnight, 30 minutes compound treatment, ratio of nuclear to cytosolic GFP intensity, AC50 = concentration that results in 50% activation or inhibition, read-out: FoxO AC50. An outline of the steps:
(§1)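 Serum-starved (overnight) cells treated with compounds at various doses for 30 min, then fixed in 4% paraformaldehyde and stained overnight at 4 °C for pAkt S473 with Hoechst nuclear counterstain; high-content imaging. FoxO3a readout: nuclear/cytosolic GFP ratio (%); Akt readout: total cellular pAkt intensity (%); DMSO = 0% activity.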

A further test deals with Akt. The test is described as follows: Akt activation assay (Phospho-AKT (Ser473) antibody staining) in U2OS GFP-FoxO3a H212R reporter cells. It is filed as cell-based. The note with it: Homo sapiens, 0.5 h, serum starved overnight, 30 minutes compound treatment, total cellular intensity of Phospho-Akt (Ser473) antibody staining, AC50 = concentration that results in 50% activation or inhibition. An outline of the steps: as §1

In general, AC50 refers to the midpoint of the concentration-response curve, whichever way the signal moves. Consider `Cc1nc(C(N)=O)nn1-c1ccc(Cc2ccc(-c3ccc(CN4CCN(C)[C@@H](C)C4)nc3)cc2)cc1` [Example 37, (S)-1-(4-(4-(6-((3,4-dimethylpiperazin-1-yl)methyl)pyridin-3-yl)benzyl)phenyl)-5-methyl-1H-1,2,4-triazole-3-carboxamide], for which the half-maximal activity concentration (AC50) with FoxO3a worked out at 276 nM; in the test with Akt, 498 nM.
For `Cc1nc(C(N)=O)nn1-c1ccc(Cc2ccc(-c3ccc(CN4CCC(F)(F)C4)cc3)cc2)cc1` [Example 38-2], in that order: 48 nM and 230 nM.
For `Cc1nc(C(N)=O)nn1-c1ccc(Cc2ccc(-c3ccc(CN4CC5(COC5)C4)cc3)cc2)cc1` [Example 38-4], in that order: 62 nM and 207 nM.
The matching figures for `Cc1nc(C(N)=O)nn1-c1ccc(Cc2ccc(-c3ccc(CN4CCC[C@@H]4CO)cc3)cc2)cc1` [Example 38-5]: 26 nM and 27 nM.
As for `Cc1nc(C(N)=O)nn1-c1ccc(Cc2ccc(-c3ccc(CN4CCC(C)(C)C4)cc3)cc2)cc1` [Example 38-7], the half-maximal activity concentration (AC50) in the test with FoxO3a is 15 nM; in the test on Akt it was 31 nM.
The matching figures for `Cc1nc(C(N)=O)nn1-c1ccc(Cc2ccc(-c3ccc(CN4CCC5(CC4)COC5)cc3)cc2)cc1` [Example 38-8]: 51 nM and 211 nM.
For `Cc1nc(C(N)=O)nn1-c1ccc(Cc2ccc(-c3ccc(CN4CCCC(F)(F)C4)cc3)cc2)cc1` [Example 38-9], in that order: 13 nM and 11 nM.
For `Cc1nc(C(N)=O)nn1-c1ccc(Cc2ccc(-c3ccc(CN4CCC(C)(C)CC4)cc3)cc2)cc1` [Example 38-10], in that order: 175 nM and 397 nM.
For `Cc1nc(C(N)=O)nn1-c1ccc(Cc2ccc(-c3ccc(CN4CCC(CN(C)C)CC4)cc3)cc2)cc1` [Example 39-1, 1-(4-((4′-((4-((dimethylamino)methyl)piperidin-1-yl)methyl)-[1,1′-biphenyl]-4-yl)methyl)phenyl)-5-methyl-1H-1,2,4-triazole-3-carboxamide], the AC50 with FoxO3a stood at 195 nM; in the test with Akt it was 615 nM.
For `Cc1nc(C(N)=O)nn1-c1ccc(Cc2ccc(-c3ccc(CN4CCC(C(C)(C)O)CC4)cc3)cc2)cc1` [Example 39-3], in that order: 37 nM and 120 nM.
For `Cc1nc(C(N)=O)nn1-c1ccc(Cc2ccc(-c3ccc(CN4CC[C@@H](O)C4)cc3)cc2)cc1` [Example 39-4], in that order: 26 nM and 92 nM.
The matching figures for `Cc1nc(C(N)=O)nn1-c1ccc(Cc2ccc(-c3ccc(CN4CC[C@H](O)C4)cc3)cc2)cc1` [Example 39-5]: 8 nM and 22 nM.
Take `Cc1nc(C(N)=O)nn1-c1ccc(Cc2ccc(-c3ccc(CN4CCC(C)(O)CC4)cc3)cc2)cc1` [Example 39-6]: the half-maximal activity concentration (AC50) with FoxO3a turned out to be 9 nM; in the test on Akt it was 5 nM.
With `Cc1nc(C(N)=O)nn1-c1ccc(Cc2ccc(-c3ccc(CN4CCS(=O)(=O)CC4)cc3)cc2)cc1` [Example 39-32], the AC50 in the test with FoxO3a was 48 nM; in the test on Akt, 85 nM.
In the case of `Cc1nc(C(N)=O)nn1-c1ccc(Cc2ccc(-c3ccc(CN4CCC5(CCO5)CC4)cc3)cc2)cc1` [Example 39-37], the AC50 in the test on FoxO3a is 81 nM; with Akt, 270 nM.
For `Cc1nc(C(N)=O)nn1-c1ccc(Cc2ccc(-c3ccc(CN4CCC[C@H]4CO)cc3)cc2)cc1` [Example 39-38], in that order: 48 nM and 119 nM.
The matching figures for `Cc1cc(C(N)=O)nn1-c1ccc(Cc2ccc(-c3ccc(CN4CCC(N(C)C)CC4)cc3)cc2)cc1` [Example 40, 1-(4-((4′-((4-(dimethylamino)piperidin-1-yl)methyl)-[1,1′-biphenyl]-4-yl)methyl)phenyl)-5-methyl-1H-pyrazole-3-carboxamide]: 32 nM and 146 nM.
For `Cc1nc(C(N)=O)nn1-c1ccc(Cc2ccc(-c3ccc(CC4C[C@@H]5CN(C)C[C@@H]5C4)cc3)cc2)cc1` (stereo partly drawn) [Example 41, 5-methyl-1-(4-((4′-(((3aR,6aS)-2-methyloctahydrocyclopenta[c]pyrrol-5-yl)methyl)-[1,1′-biphenyl]-4-yl)methyl)phenyl)-1H-1,2,4-triazole-3-carboxamide], in that order: 114 nM and 91 nM.
Regarding `Cc1nc(C(N)=O)nn1-c1ccc(Cc2ccc(-c3ccc(CN4CCNCC4)cc3)cc2)cc1` [Example 45, 5-methyl-1-(4-((4′-(piperazin-1-ylmethyl)-[1,1′-biphenyl]-4-yl)methyl)phenyl)-1H-1,2,4-triazole-3-carboxamide], the concentration at half-maximal activity (AC50) amounted to 130 nM with FoxO3a and 3 nM in the test with Akt.
For `Cc1nc(C(N)=O)nn1-c1ccc(Cc2ccc(-c3ccc(C(C)(C)O)nc3)cc2)cc1` [Example 46, 1-(4-(4-(6-(2-hydroxypropan-2-yl)pyridin-3-yl)benzyl)phenyl)-5-methyl-1H-1,2,4-triazole-3-carboxamide], in that order: 234 nM and 1160 nM.
The matching figures for `Cc1nc(C(N)=O)nn1-c1ccc(Cc2ccc(-c3ccc(OC4CCN(C)CC4)cc3)cc2)cc1` [Example 47, 5-methyl-1-(4-((4′-((1-methylpiperidin-4-yl)oxy)-[1,1′-biphenyl]-4-yl)methyl)phenyl)-1H-1,2,4-triazole-3-carboxamide]: 93 nM and 99 nM.
Take `Cc1nc(C(N)=O)nn1-c1ccc(Cc2ccc(-c3ccc(C(C)(C)CO)cc3)cc2)cc1` [Example 48, 1-(4-((4′-(1-hydroxy-2-methylpropan-2-yl)-[1,1′-biphenyl]-4-yl)methyl)phenyl)-5-methyl-1H-1,2,4-triazole-3-carboxamide]: the results for the AC50 in the test with FoxO3a and with Akt were 51 nM and 160 nM, respectively.
Consider `Cc1nc(C(N)=O)nn1-c1ccc(Cc2ccc(N3CCC(C(C)(C)O)CC3)cc2)cc1` [Example 49, 1-(4-(4-(4-(2-hydroxypropan-2-yl)piperidin-1-yl)benzyl)phenyl)-5-methyl-1H-1,2,4-triazole-3-carboxamide], for which the concentration at half-maximal activity (AC50) with FoxO3a turned out to be 273 nM; in the test with Akt, 840 nM.
For `Cc1nc(C(N)=O)nn1-c1ccc(Cc2ccc(-c3ccc(S(=O)(=O)NCC(C)(C)O)cc3)cc2)cc1` [Example 50, 1-(4-((4′-(N-(2-hydroxy-2-methylpropyl)sulfamoyl)-[1,1′-biphenyl]-4-yl)methyl)phenyl)-5-methyl-1H-1,2,4-triazole-3-carboxamide], in that order: 36 nM and 117 nM.
The matching figures for `Cc1nc(C(N)=O)nn1-c1ccc(Cc2ccc(-c3ccc(C(=O)NCC(C)(C)O)cc3)cc2)cc1` [Example 51, 1-(4-((4′-((2-hydroxy-2-methylpropyl)carbamoyl)-[1,1′-biphenyl]-4-yl)methyl)phenyl)-5-methyl-1H-1,2,4-triazole-3-carboxamide]: 102 nM and 300 nM.
With `Cc1nc(C(N)=O)nn1-c1ccc(Cc2ccc(-c3ccc(S(=O)(=O)NCC(C)(C)O)cn3)cc2)cc1` [Example 52, 1-(4-(4-(5-(N-(2-hydroxy-2-methylpropyl)sulfamoyl)pyridin-2-yl)benzyl)phenyl)-5-methyl-1H-1,2,4-triazole-3-carboxamide], the AC50 in the test with FoxO3a is 106 nM; in the test with Akt, 749 nM.
The matching figures for `Cc1nc(C(N)=O)nn1-c1ccc(Cc2ccc(-c3cc(C(C)(C)O)ccn3)cc2)cc1` [Example 53, 1-(4-(4-(4-(2-hydroxypropan-2-yl)pyridin-2-yl)benzyl)phenyl)-5-methyl-1H-1,2,4-triazole-3-carboxamide]: 2420 nM and 8230 nM.
For `Cc1nc(C(N)=O)nn1-c1ccc(Cc2ccc(C#CC3CCN(C)CC3)cc2)cc1` [Example 54, 5-methyl-1-(4-(4-((1-methylpiperidin-4-yl)ethynyl)benzyl)phenyl)-1H-1,2,4-triazole-3-carboxamide], in that order: 248 nM and 528 nM.
For `Cc1nc(C(N)=O)nn1-c1ccc(Cc2ccc(C#CC3(O)CCCCC3)cc2)cc1` [Example 55, 1-(4-(4-((1-hydroxycyclohexyl)ethynyl)benzyl)phenyl)-5-methyl-1H-1,2,4-triazole-3-carboxamide], in that order: 96 nM and 1290 nM.
On to `Cc1nc(C(N)=O)nn1-c1ccc(Cc2ccc(-c3ccc(C(C)(C)CO)cn3)cc2)cc1` [Example 56, 1-(4-(4-(5-(1-hydroxy-2-methylpropan-2-yl)pyridin-2-yl)benzyl)phenyl)-5-methyl-1H-1,2,4-triazole-3-carboxamide], for which the concentration at half-maximal activity (AC50) in the test on FoxO3a came to 156 nM; in the test with Akt it was 366 nM.

The values are drawn from US10633350B2, “Diphenyl derivatives and uses thereof” (NOVARTIS AG, priority 2017, dated 2020).
